According to patent US4304679A, “Detergent product containing deodorant compositions” (priority 1978, dated 1981):

target: T1, lipoxidase (ECl.13.1.13) (Glycine max, UniProt P08170); assay: Lipoxidase test: inhibition of the oxidation of linoleic acid by lipoxidase; format: biochemical; conditions: test substrate made with 0.5% by weight solution of material in ethanol; pH 9.0 borate buffer; 234 nm
T1 sequence (P08170 1-839): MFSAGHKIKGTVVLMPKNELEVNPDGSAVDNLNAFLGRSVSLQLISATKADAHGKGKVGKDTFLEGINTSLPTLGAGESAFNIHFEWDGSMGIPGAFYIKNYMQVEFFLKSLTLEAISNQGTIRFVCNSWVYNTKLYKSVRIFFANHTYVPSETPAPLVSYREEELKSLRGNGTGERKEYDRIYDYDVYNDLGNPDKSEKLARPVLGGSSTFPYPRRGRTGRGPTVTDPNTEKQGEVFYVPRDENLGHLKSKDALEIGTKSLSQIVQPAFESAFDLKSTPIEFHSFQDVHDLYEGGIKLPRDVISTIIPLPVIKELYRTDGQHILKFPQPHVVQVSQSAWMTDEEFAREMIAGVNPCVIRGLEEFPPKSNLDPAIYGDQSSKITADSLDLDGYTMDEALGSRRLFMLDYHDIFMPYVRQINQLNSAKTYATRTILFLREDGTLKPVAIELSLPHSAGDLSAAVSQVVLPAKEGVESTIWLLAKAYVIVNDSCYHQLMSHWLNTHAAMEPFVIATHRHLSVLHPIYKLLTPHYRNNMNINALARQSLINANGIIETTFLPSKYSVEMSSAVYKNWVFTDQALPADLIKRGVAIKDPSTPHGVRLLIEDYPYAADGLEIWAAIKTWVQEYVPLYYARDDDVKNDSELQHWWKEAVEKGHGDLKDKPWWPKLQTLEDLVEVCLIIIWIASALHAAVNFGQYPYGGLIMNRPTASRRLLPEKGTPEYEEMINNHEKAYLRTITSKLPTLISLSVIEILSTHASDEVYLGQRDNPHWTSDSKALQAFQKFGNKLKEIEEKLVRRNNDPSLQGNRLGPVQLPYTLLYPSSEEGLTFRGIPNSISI

Substance	LIC (lipoxidase inhibiting capacity, % inhibition)
Tetrahydromuguol	24%
i-Nonyl acetate	50%
i-Nonyl formate	19%
Dimyrcetol	16%
